Source: patent US11839601B2, “Cannabis-enriched enzymatically treated therapeutic composition” (priority 2016, dated 2023)

Test: Storage of honey / cannabis extract blends at room temperature, cannabinoid content after storage (conversion)
Format: physicochemical
Method: Cannabis plants of various strains were extracted using ethanol at ethanol to plant material weight/weight ratio of 8 to 1 for 30 minutes. Ethanol was removed from the extracts by evaporation under reduced pressure and the desolventized extracts were treated at 120° C. to reach complete decarboxylation. The cannabinoids content in each of the formed extracts was analyzed using HPLC.
Pure honey samples were blended with water and with the cannabis extracts to form what looked to the eye as homogeneous blends. Comparative blends were prepared by blending honey samples with extracts, but with no water addition. Cannabinoids concentrations in the blends were calculated, using the extracts compositions and the dilution by honey and water.
The blends were stored at room temperature for different durations. Then samples were taken and analyzed for cannabinoids content.

[1] = blend of 30 gr honey + 10 gr water + extract, 11 days
[2] = blend of 30 gr honey + 10 gr water + extract, glucose 64 %, 11 days, initial (calculated) THC 752 ppm, CBD 749 ppm
[3] = comparative blend of 30 gr honey + extract, no water, glucose 85 %, 18 days, initial (calculated) CBD 1150 ppm, THC 1050 ppm

**Q.** For `CCCCCc1cc(O)c2c(c1)OC(C)(C)[C@@H]1CCC(C)=C[C@@H]21` [THC, tetrahydrocannabinol], which Conversion [1] is on record?
**A.** The Conversion was 45.

**Q.** And the Concentrations after storage [2]?
**A.** The Concentrations after storage was 414.

**Q.** What about the Concentrations after storage [3] of the same compound?
**A.** Its Concentrations after storage is 1047.

**Q.** What about the “Conversion of THC compared with CBD” value (water-diluted honey blends, 11 days) of the same compound?
**A.** Its value is “greater than that of CBD”.

**Q.** With `C=C(C)[C@@H]1CCC(C)=C[C@H]1c1c(O)cc(CCCCC)cc1O` [CBD, cannabidiol] as the compound, how does the Conversion [1] read?
**A.** Its Conversion is 27.

**Q.** What about the Concentrations after storage [2] of the same compound?
**A.** The Concentrations after storage was 547.

**Q.** What about the Concentrations after storage [3] of the same compound?
**A.** The Concentrations after storage was 1148.
